Among the test systems are SF-268 CNS; HOP-62 NSCLC; SK-MEL-28 melanoma; DU-145 prostate; MDA-N; UACC-62 melanoma; TK-10 renal; IGROV1 ovarian; M14 melanoma; NCI-H460 lung.
What all share (assay): NCI tumour cell line growth inhibition, 48 h

“And” between values parts separate entries of the source, which are not always exact repeats. Identical values can stand only once.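 Cultured in 96-well plates, cells were exposed to test compound for 48 hours across five concentrations. GI50 marks 50% less growth. Definition used: TGI = concentration required for complete inhibition of growth.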

As for `Nc1c(S(=O)(=O)O)cc(Nc2cccc(S(=O)(=O)/C=C/S(=O)(=O)O)c2)c2c1C(=O)c1ccccc1C2=O`, the TGI in the experiment with SF-268 CNS, in the experiment on HOP-62 NSCLC, in the experiment with SK-MEL-28 melanoma, with DU-145 prostate, in the experiment with MDA-N and in the experiment on UACC-62 melanoma was above 100 µM in each case. Further, the TGI with TK-10 renal, with IGROV1 ovarian, in the experiment with M14 melanoma and with NCI-H460 lung was above 100 µM throughout.
With `CCS(=O)(=O)c1c2cc(OC)ccc2nc2ccc(OC)cc12`, the TGI in the experiment on SF-268 CNS, with HOP-62 NSCLC, in the experiment on SK-MEL-28 melanoma, with DU-145 prostate, in the experiment with MDA-N and in the experiment with UACC-62 melanoma was above 100 µM in each case. Further, the TGI in the experiment with TK-10 renal, in the experiment with IGROV1 ovarian, in the experiment with M14 melanoma and in the experiment on NCI-H460 lung was above 100 µM each time.
In the case of `CC(=O)NC1=CC(=O)c2cc(C)cc(O)c2C1=O`, the TGI was 22.6 µM with SF-268 CNS; 35.2 µM in the experiment on HOP-62 NSCLC; 1.54 µM in the experiment on SK-MEL-28 melanoma; 14.1 µM with DU-145 prostate; 3.02 µM in the experiment with MDA-N; 4.71 µM in the experiment with UACC-62 melanoma. The TGI with TK-10 renal was 45.9 µM; in the experiment on IGROV1 ovarian it was 26.4 µM; in the experiment with M14 melanoma it was 3.53 µM; with NCI-H460 lung, 36.1 µM.
`CCOc1cc(C2SCC(=O)N2c2nc3cc4sc(N5C(=O)CSC5c5ccc(O)c(OCC)c5)nc4cc3s2)ccc1O` (stereo not drawn): the TGI in the experiment on SF-268 CNS, with HOP-62 NSCLC, in the experiment on SK-MEL-28 melanoma, in the experiment with DU-145 prostate, in the experiment on MDA-N and with UACC-62 melanoma was above 100 µM throughout. The TGI in the experiment with TK-10 renal was above 100 µM; in the experiment on IGROV1 ovarian it was above 100 µM; in the experiment with M14 melanoma, above 100 µM; in the experiment with NCI-H460 lung it was above 27.5 µM.
With `CC1CCC2(CC1)N=C1CCC(C)CC1C1(CCC(C)CC1)N2` (stereo not drawn), the TGI in the experiment on SK-MEL-28 melanoma, in the experiment with DU-145 prostate, with MDA-N, in the experiment with UACC-62 melanoma, in the experiment with TK-10 renal and in the experiment on IGROV1 ovarian was above 100 µM in each case. For the same compound, the TGI with M14 melanoma and in the experiment on NCI-H460 lung was above 100 µM in each case.
As to `COc1cc2c(cc1Cl)n([O-])c(C#N)c(N1CCN(c3ccc([N+](=O)[O-])cc3)CC1)[n+]2=O`, the TGI in the experiment on SF-268 CNS was above 84 µM; in the experiment with HOP-62 NSCLC, above 62.8 µM; in the experiment on SK-MEL-28 melanoma, above 100 µM; with DU-145 prostate, above 100 µM; in the experiment on MDA-N, above 100 µM; with UACC-62 melanoma it was above 72.9 µM. In addition, the TGI is above 100 µM in the experiment with TK-10 renal, 8.29 µM in the experiment on IGROV1 ovarian, above 100 µM in the experiment on M14 melanoma and above 100 µM in the experiment with NCI-H460 lung.
Regarding `O=C(CCCn1ccnc1[N+](=O)[O-])NCCn1ccnc1[N+](=O)[O-]`, the TGI in the experiment on SF-268 CNS, with HOP-62 NSCLC, in the experiment with SK-MEL-28 melanoma, with DU-145 prostate, in the experiment on MDA-N and in the experiment on UACC-62 melanoma was above 100 µM throughout. In addition, the TGI with TK-10 renal, in the experiment on IGROV1 ovarian, in the experiment on M14 melanoma and with NCI-H460 lung was above 100 µM each time.
As for `COc1cc(C2S/C(=C/c3ccccc3)C(=O)N2c2cccc([N+](=O)[O-])c2)cc(OC)c1OC` (stereo not drawn), the TGI in the experiment on SF-268 CNS was above 100 µM; in the experiment with HOP-62 NSCLC, above 100 µM; in the experiment with SK-MEL-28 melanoma it was above 100 µM; in the experiment with MDA-N it was 55.7 µM; in the experiment on UACC-62 melanoma, above 100 µM; with TK-10 renal, above 100 µM. Moreover, the TGI in the experiment with M14 melanoma is above 100 µM.
As for `O=C(Nc1cccc(-n2ccc3c(NC(=O)c4ccccc4)nccc32)c1)c1cc(N2CCOCC2)cc(C(F)(F)F)c1`, the GI50 was 0.264 µM with SF-268 CNS; 0.168 µM in the experiment on HOP-62 NSCLC; 0.085 µM in the experiment with SK-MEL-28 melanoma; 0.164 µM in the experiment with DU-145 prostate; 0.0511 µM with UACC-62 melanoma; 0.435 µM in the experiment on TK-10 renal. Moreover, the GI50 with IGROV1 ovarian was 0.235 µM; in the experiment on M14 melanoma it was 0.125 µM; in the experiment on NCI-H460 lung, 0.0374 µM. The TGI is above 100 µM in the experiment on SF-268 CNS; above 100 µM in the experiment with HOP-62 NSCLC; above 100 µM in the experiment with SK-MEL-28 melanoma; above 44.2 µM in the experiment with UACC-62 melanoma; above 95.5 µM in the experiment on TK-10 renal; above 100 µM in the experiment with IGROV1 ovarian. Besides, the TGI in the experiment on NCI-H460 lung was above 36.9 µM.
For `O=C1C[C@H](c2ccccc2)C2(C(=O)c3ccccc3C2=O)[C@H](c2ccccc2)C1`, the TGI in the experiment on HOP-62 NSCLC was 96 µM; in the experiment with SK-MEL-28 melanoma, above 100 µM; in the experiment on DU-145 prostate, above 100 µM; in the experiment with MDA-N, above 100 µM; in the experiment on UACC-62 melanoma, above 100 µM; in the experiment on IGROV1 ovarian, above 100 µM. Besides, the TGI in the experiment with M14 melanoma and in the experiment with NCI-H460 lung was above 100 µM in each case.
As to `c1ccc(C2=C(c3ccccc3)P(c3ccccc3)C2)cc1` (stereo not drawn), the TGI with SF-268 CNS, in the experiment on HOP-62 NSCLC, in the experiment on SK-MEL-28 melanoma, in the experiment on DU-145 prostate, in the experiment with MDA-N and in the experiment on TK-10 renal was above 100 µM throughout. Besides, the TGI with IGROV1 ovarian, in the experiment on M14 melanoma and in the experiment on NCI-H460 lung was above 100 µM each time.
For `CN1CC2CC(C1)c1cccc(=O)n1C2` (stereo not drawn), the TGI with SF-268 CNS, with HOP-62 NSCLC, in the experiment on DU-145 prostate, with MDA-N, in the experiment with UACC-62 melanoma and in the experiment with TK-10 renal was above 100 µM throughout. In addition, the TGI in the experiment on IGROV1 ovarian, in the experiment on M14 melanoma and in the experiment on NCI-H460 lung was above 100 µM each time.
Regarding `CN(C)CC(NC(NCS)C(=O)NCCNc1ccc(NCCNC(=O)C(NCS)NC(CN(C)C)OCCl)c2c1C(=O)c1c(O)ccc(O)c1C2=O)OCCl` (stereo not drawn), the TGI is 0.482 µM with HOP-62 NSCLC; 0.977 µM and 0.287 µM in the experiment on DU-145 prostate; 1.09 µM in the experiment on MDA-N; 1.6 µM in the experiment with UACC-62 melanoma; 2.44 µM with TK-10 renal; 2.49 µM with IGROV1 ovarian. In addition, the TGI in the experiment on NCI-H460 lung stood at 0.944 µM. Moreover, the GI50 with SK-MEL-28 melanoma is 2.18 µM; with DU-145 prostate it was 0.0162 µM; in the experiment on TK-10 renal, 0.34 µM; with M14 melanoma, 0.506 µM.

The values above are taken from PubChem BioAssay (NCI).
